{"source": "patent US9296751B1", "about": "“Indolizino[3,2-c]quinoline derivatives, pharmaceutically acceptable salt thereof, preparation method thereof and pharmaceutical composition for treatment of cystic fibrosis containing the same as active ingredient” (INDUSTRY-ACADEMIC COOPERATION FOUNDATION, YONSEI UNIVERSITY, priority 2014, dated 2016)", "key": {"[1]": {"target": "T1, human cystic fibrosis conductance transmembrane regulator (CFTR) (Homo sapiens, UniProt P13569)", "T1 construct": "expressed in transfected cells; host or cells: FRT cells (Fischer rat thyroid epithelial cells)", "T1 sequence (P13569 whole entry)": "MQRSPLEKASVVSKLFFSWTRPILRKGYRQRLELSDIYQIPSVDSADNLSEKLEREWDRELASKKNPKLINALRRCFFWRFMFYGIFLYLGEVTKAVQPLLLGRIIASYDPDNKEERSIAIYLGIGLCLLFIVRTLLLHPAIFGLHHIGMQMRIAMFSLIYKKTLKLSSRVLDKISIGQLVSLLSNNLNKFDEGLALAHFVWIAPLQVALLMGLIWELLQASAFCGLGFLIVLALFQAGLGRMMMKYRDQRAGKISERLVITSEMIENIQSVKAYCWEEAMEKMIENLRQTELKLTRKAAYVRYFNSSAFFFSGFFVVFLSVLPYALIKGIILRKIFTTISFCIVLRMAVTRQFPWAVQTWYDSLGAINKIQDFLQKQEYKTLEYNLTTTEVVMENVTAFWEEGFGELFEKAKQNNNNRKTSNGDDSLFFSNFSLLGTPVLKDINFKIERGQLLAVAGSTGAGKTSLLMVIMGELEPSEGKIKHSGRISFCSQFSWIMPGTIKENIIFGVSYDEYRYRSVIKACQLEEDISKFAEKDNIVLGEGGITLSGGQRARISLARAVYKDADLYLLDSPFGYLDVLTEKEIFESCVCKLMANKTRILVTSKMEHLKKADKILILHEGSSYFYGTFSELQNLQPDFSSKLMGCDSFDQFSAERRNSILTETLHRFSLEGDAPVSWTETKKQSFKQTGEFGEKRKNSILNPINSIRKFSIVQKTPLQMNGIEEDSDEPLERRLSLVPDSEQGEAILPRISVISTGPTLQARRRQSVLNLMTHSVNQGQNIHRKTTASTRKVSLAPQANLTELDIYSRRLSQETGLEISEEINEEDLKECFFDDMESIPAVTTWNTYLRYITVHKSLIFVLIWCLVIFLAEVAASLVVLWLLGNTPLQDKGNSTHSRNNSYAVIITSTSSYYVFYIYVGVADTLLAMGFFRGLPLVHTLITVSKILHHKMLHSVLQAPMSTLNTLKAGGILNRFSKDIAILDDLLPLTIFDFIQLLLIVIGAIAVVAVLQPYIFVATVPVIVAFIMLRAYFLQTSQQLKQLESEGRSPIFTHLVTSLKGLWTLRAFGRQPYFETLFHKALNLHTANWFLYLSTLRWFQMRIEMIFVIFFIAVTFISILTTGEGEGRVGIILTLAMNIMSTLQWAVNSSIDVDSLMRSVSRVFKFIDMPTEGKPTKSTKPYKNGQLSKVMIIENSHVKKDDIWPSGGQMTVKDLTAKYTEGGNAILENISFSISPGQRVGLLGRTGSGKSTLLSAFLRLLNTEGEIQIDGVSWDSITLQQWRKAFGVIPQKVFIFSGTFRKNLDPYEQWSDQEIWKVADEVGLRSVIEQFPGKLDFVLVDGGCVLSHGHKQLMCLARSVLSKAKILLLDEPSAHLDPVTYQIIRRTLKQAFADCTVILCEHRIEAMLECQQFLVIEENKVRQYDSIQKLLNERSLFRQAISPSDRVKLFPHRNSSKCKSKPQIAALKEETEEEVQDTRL", "assay": "Effect upon CFTR chloride ion channel activity (YFP fluorescence quenching by iodide influx in FRT cells)", "type": "cell-based", "settings": "for CFTR activity ratio, result in words: 30 μM, comment on Table 2; for Emax at 30 µM: FRT, 10 min, final concentration of 30 μM, reaction for 10 minutes, ratio based on the CFTR activity maximized by forskolin", "procedure": "FRT cells expressing […] specific to human cystic fibrosis conductance transmembrane regulator (CFTR) and iodide ions are cultured in the Coon's modified F-12 culture medium for 48 hours on a 96-well plate. Each well of the plate containing the cultured cells is washed three times with 200 μl of PBS buffer, and then 100 μl of PBS buffer is added to each well. The indolizino[3,2-c]quinoline derivative according to each Example is introduced to each well to a final concentration of 30 μM, followed by reaction for 10 minutes. After the completion of the reaction, the 96-well is mounted to a FLUOstar Omega microplate reader (BMG LABTECH) and 100 μl of NaI solution is added to each well. Then, YFP fluorescence reduced by the iodide ions introduced to the cells through CFTR is recorded at an interval of 0.4 seconds for 24 seconds in total, thereby evaluating the effect of each compound upon CFTR activity.\nThe effect of each indolizino[3,2-c]quinoline derivative upon CFTR chloride ion channel activity is calculated as an activity ratio based on the CFTR activity maximized by a well-known CFTR agonist, forskolin."}}}
{"compound": "Brc1ccc(-c2nc3ccccc3c3cc4ccccn4c23)cc1", "note": "[Example 1, 6-(4-Bromophenyl)indolizino[3,2-c]quinoline]", "values": [{"measurement": "CFTR activity ratio, result in words", "setting": "[1]", "result": "high activity ratio"}, {"measurement": "Emax at 30 µM", "setting": "[1]", "result": 85, "unit": "%"}, {"measurement": "melting point", "result": "205.5 to 205.8", "unit": "°C"}]}
{"compound": "Fc1ccc(-c2nc3ccccc3c3cc4ccccn4c23)cc1", "note": "[Example 2, 6-(4-Fluorophenyl)indolizino[3,2-c]quinoline]", "values": [{"measurement": "melting point", "result": "167 to 167.4", "unit": "°C"}]}
{"compound": "Clc1ccc(-c2nc3ccccc3c3cc4ccccn4c23)cc1", "note": "[Example 3, 6-(4-Chlorophenyl)indolizino[3,2-c]quinoline]", "values": [{"measurement": "melting point", "result": "190.5 to 191", "unit": "°C"}]}
{"compound": "Clc1cccc(-c2nc3ccccc3c3cc4ccccn4c23)c1", "note": "[Example 4, 6-(3-Chlorophenyl)indolizino[3,2-c]quinoline]", "values": [{"measurement": "melting point", "result": "124.3 to 125.3", "unit": "°C"}]}
{"compound": "O=[N+]([O-])c1ccc(-c2nc3ccccc3c3cc4ccccn4c23)cc1", "note": "[Example 5, 6-(4-Nitrophenyl)indolizino[3,2-c]quinoline]", "values": [{"measurement": "CFTR activity ratio, result in words", "setting": "[1]", "result": "high activity ratio"}, {"measurement": "Emax at 30 µM", "setting": "[1]", "result": 93, "unit": "%"}, {"measurement": "melting point", "result": "246.3 to 246.5", "unit": "°C"}]}
{"compound": "c1ccc(-c2nc3ccccc3c3cc4ccccn4c23)cc1", "note": "[Example 6, 6-Phenylindolizino[3,2-c]quinoline]", "values": [{"measurement": "melting point", "result": "141.9 to 142.8", "unit": "°C"}]}
{"compound": "COc1ccc(-c2nc3ccccc3c3cc4ccccn4c23)cc1", "note": "[Example 7, 6-(4-Methoxyphenyl)indolizino[3,2-c]quinoline]", "values": [{"measurement": "melting point", "result": "164.3 to 164.7", "unit": "°C"}]}
{"compound": "COc1cccc(-c2nc3ccccc3c3cc4ccccn4c23)c1", "note": "[Example 8, 6-(3-Methoxyphenyl)indolizino[3,2-c]quinoline]", "values": [{"measurement": "melting point", "result": "174 to 174.4", "unit": "°C"}]}
{"compound": "Cc1ccc(-c2nc3ccccc3c3cc4ccccn4c23)cc1", "note": "[Example 9, 6-(p-Tolyl)indolizino[3,2-c]quinoline]", "values": [{"measurement": "melting point", "result": "85.3 to 86", "unit": "°C"}]}
{"compound": "COc1cc(OC)cc(-c2nc3ccccc3c3cc4ccccn4c23)c1", "note": "[Example 10, 6-(3,5-Dimethoxyphenyl)indolizino[3,2-c]quinoline]", "values": [{"measurement": "CFTR activity ratio, result in words", "setting": "[1]", "result": "high activity ratio"}, {"measurement": "Emax at 30 µM", "setting": "[1]", "result": 63, "unit": "%"}, {"measurement": "melting point", "result": "139.7 to 140.4", "unit": "°C"}]}
{"compound": "COc1ccc(-c2nc3ccccc3c3cc4ccccn4c23)cc1OC", "note": "[Example 11, 6-(3,4-Dimethoxyphenyl)indolizino[3,2-c]quinoline]", "values": [{"measurement": "melting point", "result": "91.3 to 92", "unit": "°C"}]}
{"compound": "c1ccc2cc(-c3nc4ccccc4c4cc5ccccn5c34)ccc2c1", "note": "[Example 13, 6-(Naphthalen-2-yl)indolizino[3,2-c]quinoline]", "values": [{"measurement": "CFTR activity ratio, result in words", "setting": "[1]", "result": "high activity ratio"}, {"measurement": "Emax at 30 µM", "setting": "[1]", "result": 83, "unit": "%"}, {"measurement": "melting point", "result": "205.6 to 206.2", "unit": "°C"}]}
{"compound": "Clc1ccc(-c2nc3ccccc3c3cc4ccccn4c23)s1", "note": "[Example 15, 6-(5-Chlorothiophen-2-yl)indolizino[3,2-c]quinoline]", "values": [{"measurement": "CFTR activity ratio, result in words", "setting": "[1]", "result": "high activity ratio"}, {"measurement": "Emax at 30 µM", "setting": "[1]", "result": 98, "unit": "%"}, {"measurement": "melting point", "result": "161.4 to 161.7", "unit": "°C"}]}
{"compound": "Cc1cccn2c1cc1c3ccccc3nc(-c3cccc(F)c3)c12", "note": "[Example 17, 6-(3-Fluorophenyl)-11-methylindolizino[3,2-c]quinoline]", "values": [{"measurement": "Emax at 30 µM", "setting": "[1]", "result": 50, "unit": "%"}, {"measurement": "melting point", "result": "176.1 to 176.5", "unit": "°C"}]}
{"compound": "Cc1cccn2c1cc1c3ccccc3nc(-c3ccc([N+](=O)[O-])cc3)c12", "note": "[Example 18, 11-Methyl-6-(4-nitrophenyl)indolizino[3,2-c]quinoline]", "values": [{"measurement": "melting point", "result": "259.7 to 260.4", "unit": "°C"}]}
{"compound": "COc1cccc(-c2nc3ccccc3c3cc4c(C)cccn4c23)c1", "note": "[Example 19, 6-(3-Methoxyphenyl)-11-methylindolizino[3,2-c]quinoline]", "values": [{"measurement": "melting point", "result": "165 to 166", "unit": "°C"}]}
{"compound": "Cc1ccc(-c2nc3ccccc3c3cc4c(C)cccn4c23)cc1", "note": "[Example 20, 11-Methyl-6-(p-tolyl)indolizino[3,2-c]quinoline]", "values": [{"measurement": "melting point", "result": "162.5 to 163.1", "unit": "°C"}]}
{"compound": "COc1cc(OC)cc(-c2nc3ccccc3c3cc4c(C)cccn4c23)c1", "note": "[Example 21, 6-(3,5-Dimethoxyphenyl)-11-methylindolizino[3,2-c]quinoline]", "values": [{"measurement": "Emax at 30 µM", "setting": "[1]", "result": 66, "unit": "%"}, {"measurement": "melting point", "result": "185.8 to 186.4", "unit": "°C"}]}
{"compound": "COc1ccc(-c2nc3ccccc3c3cc4c(C)cccn4c23)cc1OC", "note": "[Example 22, 6-(3,4-Dimethoxyphenyl)-11-methylindolizino[3,2-c]quinoline]", "values": [{"measurement": "melting point", "result": "162.8 to 163.3", "unit": "°C"}]}
{"compound": "COc1ccc(-c2nc3ccccc3c3cc4ccc(Br)cn4c23)cc1", "note": "[Example 24, 9-Bromo-6-(4-methoxyphenyl)indolizino[3,2-c]quinoline]", "values": [{"measurement": "melting point", "result": "229.5 to 230", "unit": "°C"}]}
{"compound": "Cc1ccc(-c2nc3ccccc3c3cc4ccc(Br)cn4c23)cc1", "note": "[Example 25, 9-Bromo-6-(p-tolyl)indolizino[3,2-c]quinolone]", "values": [{"measurement": "melting point", "result": "230.8 to 231.2", "unit": "°C"}]}
{"compound": "COc1ccc(-c2nc3ccccc3c3cc4ccc(Br)cn4c23)cc1OC", "note": "[Example 26, 9-Bromo-6-(3,4-dimethoxyphenyl)indolizino[3,2-c]quinoline]", "values": [{"measurement": "melting point", "result": "188.5 to 189", "unit": "°C"}]}
{"compound": "Brc1ccc2cc3c4ccccc4nc(-c4ccc(Br)s4)c3n2c1", "note": "[Example 28, 9-Bromo-6-(5-bromothiophen-2-yl)indolizino[3,2-c]quinoline]", "values": [{"measurement": "melting point", "result": "223.3 to 223.7", "unit": "°C"}]}
{"compound": "Brc1ccc2cc3c4ccccc4nc(-c4ccco4)c3n2c1", "note": "[Example 29, 9-Bromo-6-(furna-2-yl)indolizino[3,2-c]quinoline]", "values": [{"measurement": "melting point", "result": "193.3 to 193.6", "unit": "°C"}]}
{"compound": "COC(=O)c1c2c3ccccc3nc(-c3ccc(Br)cc3)c2n2ccccc12", "note": "[Example 30, Methyl 6-(4-bromophenyl)indolizino[3,2-c]quinoline-12-carboxylate]", "values": [{"measurement": "melting point", "result": "232.3 to 232.5", "unit": "°C"}]}
{"compound": "COC(=O)c1c2c3ccccc3nc(-c3cc(OC)cc(OC)c3)c2n2ccccc12", "note": "[Example 31, Methyl 6-(3,5-dimethoxyphenyl)indolizino[3,2-c]quinoline-12-carboxylate]", "values": [{"measurement": "CFTR activity ratio, result in words", "setting": "[1]", "result": "high activity ratio"}, {"measurement": "melting point", "result": "205.9 to 206.3", "unit": "°C"}]}
{"compound": "COC(=O)c1c2c3ccccc3nc(-c3cccc4ccccc34)c2n2ccccc12", "note": "[Example 32, Methyl 6-(naphthalene-1-yl)indolizino[3,2-c]quinoline-12-carboxylate]", "values": [{"measurement": "melting point", "result": "245.8 to 246.2", "unit": "°C"}]}
{"compound": "COC(=O)c1c2c3ccccc3nc(-c3ccc[nH]3)c2n2ccccc12", "note": "[Example 33, Methyl 6-(1H-pyrrol-2-yl)indolizino[3,2-c]quinoline-12-carboxylate]", "values": [{"measurement": "Emax at 30 µM", "setting": "[1]", "result": 37, "unit": "%"}, {"measurement": "melting point", "result": "230.8 to 231.4", "unit": "°C"}]}
{"compound": "CCOC(=O)c1c2c3ccccc3nc(-c3cccc(F)c3)c2n2ccccc12", "note": "[Example 34, Ethyl 6-(3-fluorophenyl)indolizino[3,2-c]quinoline-12-carboxylate]", "values": [{"measurement": "melting point", "result": "202.1 to 202.4", "unit": "°C"}]}
{"compound": "CCOC(=O)c1c2c3ccccc3nc(-c3cccc(Cl)c3)c2n2ccccc12", "note": "[Example 35]", "values": [{"measurement": "melting point", "result": "214.3 to 214.5", "unit": "°C"}]}
{"compound": "CCOC(=O)c1c2c3ccccc3nc(-c3ccc([N+](=O)[O-])cc3)c2n2ccccc12", "note": "[Example 36, Ethyl 6-(4-nitrophenyl)indolizino[3,2-c]quinoline-12-carboxylate]", "values": [{"measurement": "melting point", "result": "245.8 to 246.1", "unit": "°C"}]}
{"compound": "CCOC(=O)c1c2c3ccccc3nc(-c3cccc(OC)c3)c2n2ccccc12", "note": "[Example 37, Ethyl 6-(3-methoxyphenyl)indolizino[3,2-c]quinoline-12-carboxylate]", "values": [{"measurement": "melting point", "result": "173.4 to 173.8", "unit": "°C"}]}
{"compound": "CCOC(=O)c1c2c3ccccc3nc(-c3ccc(OC)c(OC)c3)c2n2ccccc12", "note": "[Example 38, Ethyl 6-(3,4-dimethoxyphenyl)indolizino[3,2-c]quinoline-12-carboxylate]", "values": [{"measurement": "Emax at 30 µM", "setting": "[1]", "result": 31, "unit": "%"}, {"measurement": "melting point", "result": "195.5 to 195.8", "unit": "°C"}]}
{"compound": "CCOC(=O)c1c2c3ccccc3nc(-c3ccc4ccccc4c3)c2n2ccccc12", "note": "[Example 39, Ethyl 6-(naphthalene-2-yl)indolizino[3,2-c]quinoline-12-carboxylate]", "values": [{"measurement": "melting point", "result": "210.3 to 210.7", "unit": "°C"}]}
{"compound": "COc1ccc(-c2nc3ccccc3c3cc4ccc(-c5ccc([N+](=O)[O-])cc5)cn4c23)cc1", "note": "[Example 41, 6-(4-Methoxyphenyl)-9-(4-nitrophenyl)indolizino[3,2-c]quinoline]", "values": [{"measurement": "melting point", "result": "256 to 256.6", "unit": "°C"}]}
{"compound": "COc1cc(OC)cc(-c2ccc3cc4c5ccccc5nc(-c5cccc6ccccc56)c4n3c2)c1", "note": "[Example 42, 9-(3,5-Dimethoxyphenyl)-6-(naphthalene-1-yl)indolizino[3,2-c]quinoline]", "values": [{"measurement": "melting point", "result": "177.5 to 177.8", "unit": "°C"}]}
{"compound": "c1ccc2c(-c3nc4ccccc4c4cc5ccc(-c6ccoc6)cn5c34)cccc2c1", "note": "[Example 43, 9-(Furan-3-yl)-6-(naphthalene-1 yl)indolizino[3,2-c]quinoline]", "values": [{"measurement": "melting point", "result": "91.3 to 92", "unit": "°C"}]}
{"compound": "COc1ccc(-c2nc3ccccc3c3c(Br)c4ccccn4c23)cc1", "note": "[Example 44, 12-Bromo-6-(4-methoxyphenyl)indolizino[3,2-c]quinoline]", "values": [{"measurement": "melting point", "result": "221.6 to 221.9", "unit": "°C"}]}
